# BindingDB's records for doi:10.1016/j.bmc.2014.04.036 (Amri, 2014)
# Target: T1, Sodium/glucose cotransporter 1 (Homo sapiens, UniProt P13866)
# T1 sequence (P13866 whole entry): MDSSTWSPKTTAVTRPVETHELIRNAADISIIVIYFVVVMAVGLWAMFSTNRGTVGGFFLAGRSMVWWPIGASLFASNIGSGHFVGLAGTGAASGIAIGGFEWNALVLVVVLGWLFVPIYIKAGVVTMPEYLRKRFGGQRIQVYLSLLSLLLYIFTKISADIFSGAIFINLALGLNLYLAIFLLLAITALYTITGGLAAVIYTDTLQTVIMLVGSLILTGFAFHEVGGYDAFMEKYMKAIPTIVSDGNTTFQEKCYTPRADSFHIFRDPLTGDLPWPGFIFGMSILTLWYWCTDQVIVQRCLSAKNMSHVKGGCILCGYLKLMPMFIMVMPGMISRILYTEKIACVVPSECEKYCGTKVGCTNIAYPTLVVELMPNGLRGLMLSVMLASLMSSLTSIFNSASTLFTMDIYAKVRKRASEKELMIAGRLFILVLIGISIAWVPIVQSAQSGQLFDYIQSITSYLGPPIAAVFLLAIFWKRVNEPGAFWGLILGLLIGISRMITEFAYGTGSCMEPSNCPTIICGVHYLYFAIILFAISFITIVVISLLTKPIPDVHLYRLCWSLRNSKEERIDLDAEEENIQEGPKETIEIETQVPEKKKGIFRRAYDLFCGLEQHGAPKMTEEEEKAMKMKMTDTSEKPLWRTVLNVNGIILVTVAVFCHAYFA
# Experiment: Inhibition of human SGLT1 expressed in CHOK1 cells assessed as inhibition of [14C]-AMG uptake after 3 hrs by microbeta scintillation counting analysis
row,IC50 [µM],Structure (SMILES)
1,> 90,"O=c1n(Cc2cc([C@@H]3O[C@H](CO)[C@@H](O)[C@H](O)[C@H]3O)ccc2Cl)nc2ccc(C(F)(F)F)cn12 [US8575114, I-5]"
2,> 90,"O=c1n(Cc2cc([C@@H]3O[C@H](CO)[C@@H](O)[C@H](O)[C@H]3O)ccc2Cl)nc2ccc(CO)cn12 [US8575114, I-6]"
3,> 90,"Cc1cc2nn(Cc3cc([C@@H]4O[C@H](CO)[C@@H](O)[C@H](O)[C@H]4O)ccc3Cl)c(=O)n2cc1Cl [US8575114, I-12]"
